Data on 15 molecules can be found in patent US7932272B2, “Antifungal agent containing heterocyclic compound” (Eisai R&D Management Co., Ltd., priority 2003, dated 2011).

Assay [1] deals with A. fumigatus Tsukuba strain. Put plainly: Experimental respiratory aspergillus infection model in mice. It is filed as in vivo, female DBA/2N mice. As to conditions: 5-fluorouracil-treated mice, A. fumigatus nasal infection, 20 or 40 mg/kg peroral 3 times per day for 3 days, observed until 14 days after infection. How it is done: In order to increase susceptibility of the mice to infection, 200 mg/kg of 5-fluorouracil was administered subcutaneously 6 days prior to infection.
A. fumigatus Tsukuba strain was used.
A spore suspension of the infection strain was used to coat a potato dextrose agar medium (PDA), a standing culture was carried out for 4 to 7 days at 35° C., spore was then suspended in a sterilized physiological saline containing 0.05% Tween 80. By counting the pore count on a cytometry plate, the suspension was diluted to 6×10^5 cells/ml with sterilized physiological saline containing 0.05% Tween 80 to serve as fungal inoculum.
Under ketalar anesthesia, 50 μl of fungal inoculum was used to inoculate 8 to 9 week-old female DBA/2N mice in the nose (3×10^4 cells/mouse).
From 1 hour after fungal inoculation, 0.2 ml of agent solution (dissolved or suspended in sterilized physiological saline containing 6.5% DMSO and 3.5% Tween 80), was administered into the stomach using a peroral probe 3 times per day for 3 days. The agent dosage was from 20 or 40 mg/kg, and the number of animals in one group was 5 animals.
(§1) The protective effect was determined by observing life/death until 14 days after infection and calculating the mean survival days.

The test system of assay [2] is A. fumigatus Tsukuba strain. As to the kind of experiment: Anti-Aspergillus activity (MIC measurement). The assay is classed as cell-based. As to conditions: MIC by visual inspection, 48 hours at 30 to 35° C. How it is done:
(§2) For the C. albicans E81022 strain, a fungal suspension from a standing culture for 48 hours at 30° C. in a Sabouraud dextrose liquid culture medium (SDB) was diluted 10,000-fold with a 1.3-fold concentrated SDB to adjust to a fungal suspension of 1 to 2×10^4 cells/ml. For the A. fumigatus Tsukuba strain, −80° C. stored strain was diluted 1,000-fold with a 1.3-fold concentrated SDB to adjust to a fungal suspension of 2 to 3×10^3 cells/ml.
(§3) Using a U-bottomed 96 well plate, 8 samples/plate (A to H) of sample dilution solutions were prepared. On the 3rd row of each plate was dispensed 240 μl of sterilized and distilled water, and on the 2nd and 4th to 12th rows were dispensed 125 μl of 4% dimethylsulfoxide solution. Weighed sample was dissolved in dimethylsulfoxide to prepare a 2.5 to 20 mg/ml solution, 10 μl of this solution was then added to the 3rd row of the prepared plate, and 10 steps of two-fold step dilutions (125 μl of solution+125 μl of 4% dimethylsulfoxide) were performed on the plate.
(§4) The fungal suspension preprared in (1) was used in the amount of 75 μl/well to inoculate a V-bottomed or flat-bottomed 96 well plate containing 25 μl/well of test compound dilution solution prepared in (2), and a standing culture was carried out aerobically for 48 hours at 30 to 35° C.

For assay [3], the system named is C. albicans E81022 strain. Put plainly: Experimental systemic candida infection model in mice. The assay is classed as in vivo, female ICR mice. As to conditions: C. albicans i.v. infection, 2.5 mg/kg peroral 3 times every 4 hours, observed until 14 days after infection. How it is done: A standing culture of C. albicans E81022 strain was carried out for 48 hours at 30° C. in Sabouraud dextrose agar medium (SDA), the recovered fungal cells were suspended in sterilized physiological saline. By counting the fungal number on a cytometry plate, the suspension was diluted to 2×10^7 cells/ml with sterilized physiological saline to serve as fungal inoculum.
The fungal inoculum was used in the amounts of 0.2 ml to inoculate 4.5 to 5.5 week-old female ICR mice in the tail vein (4×10^6 cells/mouse).
From 0.5 to 1 hour after fungal inoculation, 0.2 ml of agent solution (dissolved or suspended in sterilized physiological saline containing 6.5% dimethylsulfoxide and 3.5% Tween 80) was administered into the stomach using a peroral probe, 3 times every 4 hours. The agent concentration was 2.5 mg/kg, and the number of animals in one group was 5 animals.
as §1

The test system of assay [4] is C. albicans E81022 strain. Put plainly: Anti-Candida activity (MIC measurement). The assay is classed as cell-based. As to conditions: E81022STRAIN, MIC by visual inspection, C. albicans E81022, 48 hours at 30 to 35° C. How it is done:
as §2, §3, §4

Converted amounts (≈) assume the structure as drawn.

Turning to `O=C(NCc1ccc(Oc2ccc(F)cc2)s1)c1ccc2ncccc2n1` [Example D-7, [1,5]Naphthylidine-2-carboxylic acid (5-(4-fluoro-phenoxy)-thiophen-2-ylmethyl)-amide], in assay [1], the “Mean Survival Days” value worked out at 10.6 days.
`Nc1ccc(C(=O)NCc2ccc(Oc3ccccc3)s2)c(N)n1` [Example A-54, 2,6-diamino-N-(5-phenoxy-thiophene-2-ylmethyl)-nicotinamide]: the MIC (in general, the lowest concentration that inhibits growth of the organism) in assay [2] came to 1.56 µg/mL (≈ 4.58 µM); in assay [4] it was 0.78 µg/mL (≈ 2.29 µM). Moreover, the “Mean Survival Days” value in assay [3] stood at 10.0 days.
Take `Nc1ncccc1C(=O)NCc1ccc(Cc2ccccc2)s1` [Example A-70, 2-Amino-N-(5-benzyl-thiophen-2-ylmethyl)-nicotinamide]: the MIC in assay [2] stood at 0.78 µg/mL (≈ 2.41 µM); in assay [4], 0.05 µg/mL (≈ 0.155 µM). Besides, the “Mean Survival Days” value in assay [3] was 12.6 days.
Consider `COCc1ccc(C(=O)NCc2ccc(OCc3ccccn3)cc2)c(N)n1` [Example A-31, 2-Amino-6-methoxymethyl-N-(4-(pyridin-2-ylmethoxy)-benzyl)-nicotinamide], for which, in assay [1], the “Mean Survival Days” value came to 11.2 days.
Turning to `O=C(NCc1ccc(Oc2ccccc2)s1)c1cnc2[nH]ccc2c1` [Example R-1, 1H-Pyrrolo[2,3-b]pyridine-5-carboxylic acid (5-phenoxy-thiophen-2-ylmethyl)-amide], the MIC was 3.13 µg/mL (≈ 8.96 µM) in assay [2] and 0.39 µg/mL (≈ 1.12 µM) in assay [4]. Moreover, the “Mean Survival Days” value in assay [3] was found to be 10.4 days.
For the molecule `O=C(NCc1ccc(Oc2cccc(F)c2)s1)c1ccc2ncccc2c1` [Example E-65, Quinoline-6-carboxylic acid (5-(3-fluorophenoxy)thiophen-2-ylmethyl) amide], the minimum inhibitory concentration (MIC) in assay [2] was found to be 1.56 µg/mL (≈ 4.12 µM); in assay [4] it was 0.1 µg/mL (≈ 0.264 µM). The “Mean Survival Days” value in assay [3] is 11.6 days.
Turning to `COCc1ccc(C(=O)NCc2ccc(OCc3ccc(F)cc3)cc2)c(N)n1` [Example A-32, 2-Amino-N-(4-(4-fluoro-benzyloxy)-benzyl)-6-methoxymethyl-nicotinamide], the “Mean Survival Days” value in assay [1] came out at 11.8 days.
For the molecule `O=C(NCc1ccn(Cc2cccc(F)c2)c1)c1ccc2ncccc2n1` [Example D-4, [1,5]Naphthylidine-2-carboxylic acid (1-(3-fluoro-benzyl)-1H-pyrrol-3-ylmethyl)-amide], in assay [1], the “Mean Survival Days” value is 10.8 days.
Consider `Nc1ccc(C(=O)NCc2ccc(Oc3ccc(F)cc3)s2)c(N)n1` [Example A-53, 2,6-Diamino-N-(5-(4-fluoro-phenoxy)-thiophen-2-ylmethyl)-nicotinamide], for which the MIC in assay [2] is 0.78 µg/mL (≈ 2.18 µM); in assay [4] it was 0.39 µg/mL (≈ 1.09 µM). In addition, in assay [3], the “Mean Survival Days” value is 13.4 days.
On to `Nc1ccc(C(=O)NCc2ccc(OCc3ccccc3)s2)c(N)n1` [Example A-56, 2,6-Diamino-N-(5-benzyloxy-thiophen-2-ylmethyl)-nicotinamide], for which the “Mean Survival Days” value in assay [1] stood at 10.8 days.
Regarding `Nc1ccc(C(=O)NCc2ccc(Oc3cccc(F)c3)s2)cn1` [Example A-137, 6-Amino-N-(5-(3-fluorophenoxy)thiophen-2-ylmethyl)nicotinamide], in assay [3], the “Mean Survival Days” value worked out at 12.8 days. In assay [4], this molecule came in with a minimum inhibitory concentration (MIC) of 1.56 µg/mL (≈ 4.54 µM).
Turning to `Nc1ccc(C(=O)NCc2ccc(OCc3ccccc3F)cc2)c(N)n1` [Example A-11, 2,6-Diamino-N-(4-(2-fluoro-benzyloxy)-benzyl)-nicotinamide], in assay [1], the “Mean Survival Days” value was found to be 10.4 days.
On the same count and under the same terms, the figure for `Nc1ccc(C(=O)NCc2ccc(Cc3ccccc3)s2)c(N)n1` [Example A-55, 2,6-Diamino-N-(5-benzyl-thiophen-2-ylmethyl)-nicotinamide] is 12.6 days.
In the case of `Nc1ccc(C(=O)NCc2ccc(OCc3ccccc3)cc2)c(N)n1` [Example A-10, 2,6-Diamino-N-(4-benzyloxy-benzyl)-nicotinamide], the MIC in assay [2] was found to be 1.56 µg/mL (≈ 4.48 µM); in assay [4], 0.78 µg/mL (≈ 2.24 µM). In addition, the “Mean Survival Days” value in assay [3] amounted to 12.5 days.
For `Nc1ncccc1C(=O)NCc1ccc(Oc2cccc(F)c2)s1` [Example A-68, 2-Amino-N-(5-(3-fluoro-phenoxy)-thiophen-2-ylmethyl)-nicotinamide], in that order: 0.78 µg/mL (≈ 2.27 µM), 0.05 µg/mL (≈ 0.146 µM) and 10.6 days.
